Experiments:
Format in all cases: cell-based
[1] = test system: HAS2; experiment: HAS2 gene expression (qPCR) in primary human dermal fibroblasts; details: 30 hours of treatment, normalized against POLR2A, concentration given by sample
Experimental: (§1) CRAPB2, IL8 and HAS2 were evaluated in several samples containing fermented oat, retinol, and combinations of the two in varying amounts. Retinol (BASF, 50C) was prepared by dissolving Retinol in Dimethyl Sulfoxide (DMSO) for a concentration of 20% Retinol. Retinol was then further diluted in DMEM with GlutaMAX media supplemented with 1% FBS and 1X Penn/Strep for a stock concentration of (1.1×10^−4) % and (1.1×10^−5) % Retinol. […] Fermented Oat (aurafirm P, Oat Cosmetics, Hampshire, United Kingdom; INCI Aqua, Avena sativa (Oat) Kernel Extract, Lactobacillus Ferment, Sodium Benzoate, Potassium Sorbate) was diluted in media to provide 0.2% and 1.0% Fermented Oat solutions. Primary human dermal fibroblasts were acquired from Lifeline Cell Technology, LLC (Frederick, MD 21701; lot 0967). The donor demographics were as follows: person, fibroblasts isolated from breast. Fibroblasts were cultured and expanded using Dermal Fibroblast Culture Medium (Zenbio, Inc, Durham, NC 27713). […] The cDNA was evaluated by qPCR (using the QuantStudio™ 7 Flex Real-Time PCR System from Applied Biosystems, Waltham, MA). […] The fold changes were calculated in comparison to the untreated control and two-tailed two-sample Student t-tests (Microsoft Office Excel 2007; Microsoft, Redmond, WA, USA) were performed. […]

[2] = test system: IL8; experiment: IL8 gene expression (qPCR) in primary human dermal fibroblasts; details: 30 hours of treatment, normalized against POLR2A, concentration given by sample
Experimental: as §1

[3] = test system: CRABP2; experiment: CRABP2 gene expression (qPCR) in primary human dermal fibroblasts; details: 30 hours of treatment, normalized against POLR2A, concentration given by sample
Experimental: as §1

[4] = test system: HBEGF; experiment: HBEGF gene expression (qPCR) in human skin explants; details: human abdominal skin explants, topical 4 μL in PgETOH, 48 hours
Experimental: (§2) Propylene glycol/ethanol (PgETOH) (3:7) (w/w) was used as a vehicle. 1% Colloidal oat (Avena Sativa Kernel Flour, Oat Cosmetics, Southampton, United Kingdom) and 0.1% Retinol solutions were each prepared in PgETOH as shown in Tables 4-7. Combinations were prepared by adding the appropriate amount of test solutions to arrive at the final concentrations as shown. Abdominal skin samples were obtained from human adults undergoing abdominoplasty surgery. Informed consent was obtained from each patient, and all experimental steps were approved by an institutional review board (IRB). Subcutaneous fat was carefully removed and skin biopsies of 0.93 cm^2 were prepared under sterile conditions and acclimated in DMEM/F12 (1:1) medium, 2% heat-inactivated fetal bovine serum, 10 μg/mL insulin, 10 ng/mL hydrocortisone, 10 ng/mL EGF, 1x ABAM under a 5% CO2 humidified atmosphere overnight. Skin explants were treated topically with 4 μL of each formulation for 48 hours. […] The fold changes were calculated in comparison to the untreated or vehicle controls and two-tailed two-sample Student t-tests (Microsoft Office Excel 2007; Microsoft, Redmond, WA, USA) were performed. Synergies were calculated as described above. […]

[5] = test system: CRABP2; experiment: CRABP2 gene expression (qPCR) in human skin explants; details: human abdominal skin explants, topical 4 μL in PgETOH, 48 hours
Experimental: as §2

[6] = test system: IL8; experiment: IL8 gene expression (qPCR) in human skin explants; details: human abdominal skin explants, topical 4 μL in PgETOH, 48 hours
Experimental: Propylene glycol/ethanol (PgETOH) (3:7) (w/w) was used as a vehicle. 1% Colloidal oat (Avena Sativa Kernel Flour, Oat Cosmetics, Southampton, United Kingdom) and 0.1% Retinol solutions were each prepared in PgETOH as shown in Tables 4-7. Combinations were prepared by adding the appropriate amount of test solutions to arrive at the final concentrations as shown.
Abdominal skin samples were obtained from human adults undergoing abdominoplasty surgery. Informed consent was obtained from each patient, and all experimental steps were approved by an institutional review board (IRB). Subcutaneous fat was carefully removed and skin biopsies of 0.93 cm^2 were prepared under sterile conditions and acclimated in DMEM/F12 (1:1) medium, 2% heat-inactivated fetal bovine serum, 10 μg/mL insulin, 10 ng/mL hydrocortisone, 10 ng/mL EGF, 1x ABAM under a 5% CO2 humidified atmosphere overnight. Skin explants were treated topically with 4 μL of each formulation for 48 hours. […]
Reverse transcription (RT) was performed using the Applied Biosystems High Capacity Reverse Transcription Kit (ThermoFisher Scientific, Bridgewater, NJ). […] The fold changes were calculated in comparison to the untreated or vehicle controls and two-tailed two-sample Student t-tests (Microsoft Office Excel 2007; Microsoft, Redmond, WA, USA) were performed. Synergies were calculated as described above. […]

[7] = test system: HAS3; experiment: HAS3 gene expression (qPCR) in human skin explants; details: human abdominal skin explants, topical 4 μL in PgETOH, 48 hours
Experimental: as §2

SMILES	HAS2 Average Fold Change over untreated [1] [fold]	IL8 Average Fold Change over untreated [2] [fold]	CRABP2 Average Fold Change over untreated [3] [fold]	HBEGF Average Fold Change over untreated [4] [fold]	CRABP2 Average Fold Change over untreated [5] [fold]	IL8 Average Fold Change over untreated [6] [fold]	HAS3 Average Fold Change over untreated [7] [fold]
CC1=C(/C=C/C(C)=C/C=C/C(C)=C/CO)C(C)(C)CCC1 [Sample 1-2, Retinol]	0.79	2.05	1.44	–	–	–	–
CC1=C(/C=C/C(C)=C/C=C/C(C)=C/CO)C(C)(C)CCC1 [Sample 1-3, Retinol]	0.50	18.83	4.25	–	–	–	–
CC1=C(/C=C/C(C)=C/C=C/C(C)=C/CO)C(C)(C)CCC1 [Sample 2-3, Retinol]	–	–	–	3.50	3.95	2.30	3.05

— patent US20260224465A1, “COMPOSITIONS COMPRISING A RETINOID AND A PROCESSED OAT INGREDIENT” (Kenvue Brands LLC, priority 2023, published 2026)
